Assay results from patent US20150307532A1, “THIENOPYRIMIDINE INHIBITORS OF […] AND/OR […] PYROPHOSPHATE SYNTHASE” (THE ROYAL INSTITUTION FOR THE ADVANCEMENT OF …, priority 2012, published 2015).
pIC50: −log10 of the molar value. Where two headings read alike, the source gives them in different places.

What was measured:
[1] = target: T1, human recombinant FPPS (Homo sapiens, UniProt P14324); conditions: for IC50: read-out: IC50 (μM) in hFPPS Method 2, ~1 nM hFPPS, 0.2 μM GPP and IPP
T1 sequence (P14324 1-419): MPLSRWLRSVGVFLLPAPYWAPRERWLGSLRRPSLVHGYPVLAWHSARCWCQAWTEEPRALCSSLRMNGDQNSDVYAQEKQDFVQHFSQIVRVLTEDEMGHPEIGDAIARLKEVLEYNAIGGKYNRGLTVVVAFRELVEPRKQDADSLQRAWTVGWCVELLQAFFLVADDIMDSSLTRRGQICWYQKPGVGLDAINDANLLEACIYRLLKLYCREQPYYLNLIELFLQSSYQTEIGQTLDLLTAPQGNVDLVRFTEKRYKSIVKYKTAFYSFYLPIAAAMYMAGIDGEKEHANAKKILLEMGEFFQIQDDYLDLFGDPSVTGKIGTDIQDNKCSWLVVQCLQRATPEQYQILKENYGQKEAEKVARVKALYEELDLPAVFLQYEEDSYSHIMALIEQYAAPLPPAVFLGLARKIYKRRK
Procedure: In vitro Enzymatic Inhibition Assay for hFPPS: In vitro sensitized inhibition assay for hFPPS (M2):
For assays run with a 10 min pre-incubation period, the enzyme and inhibitor were incubated in the assay buffer in a volume of 80 μL at 37° C. for 10 min. After 10 min, the substrates were added to start the reaction and also bring the inhibitor and substrate to the desired final concentrations. After addition of all substrates, all assays were incubated at 37° C. for 8 min. Assays were terminated by the addition of 200 μL of HCl/methanol (1:4) and incubated for 10 min at 37° C. The assay mixture was then extracted with 700 μL of ligroin (in order to separate reaction products from unused substrate), dried through a plug of anhydrous MgSO4 and 300 μL of the ligroin phase was combined with 8 mL of scintillation cocktail. The radioactivity was then counted using a Beckman Coulter LS6500 liquid scintillation counter.

[2] = test system: total Tau (T-Tau); test: Total Tau ELISA (Innotest Total Tau, hTau assay) in human immortalized neurons; assay type: cell-based; conditions: compound 100 nM, 24 hours, SH-SY5Y cell homogenate
Procedure: (§1) The commercially available INNOTEST® PHOSPHO-TAU(181P) solid-phase enzyme immunoassay was used. In this assay, the phosphorylated Tau protein or fragments are captured by a first monoclonal human specific antibody, HT7 (IgG1). Human immortalized neurons were treated with various compounds at […] and incubated with biotinylated AT270 (IgG1) monoclonal. This antigen-antibody complex is then detected by a peroxidase-labeled streptavidin. After addition of substrate working solution, samples develop a color. The color intensity is a measure for the amount of phosphorylated Tau protein in the sample. This assay has been standardized in numerous research laboratories (for examples see Vanderstichele, H. et al. Alzheimer's & Dementia 2012, 8, 65-73; Zimmermann, R. et al. Journal of Alzheimer's Diseases 2011, 25, 739-745; Blennow, K. et al. Molecular and Chemical Neuropathology 1995, 26, 231-245). Human neuroblastomas SH-SY5Y cell line were used and purchased at the ATCC under the label CRL2266. All compounds were tested in three fixed concentrations at 100 nM, 1 μM and 100 μM in duplicates. We used the 6 well culture plates to grown a significant density of neurons (330,000 cells/well). Cells were grown to 80% confluence in MEM-F12 media with 10% fetal bovine serum, the exposed for 24 hours to the different inhibitors. After one day, the supernatant was removed (and saved at −20° C.). The cell are washed repeatedly in PBS buffer and saved at −80° C. ELISA assays were performed on neuronal cell homogenates using a standardized assay developed by INNOGENETICS called Innotest Total Tau also refers to as the hTau assay and Innotest phospho-Tau (P181). Assays were performed as per manufacturer protocol. The concentration units are in pg of P-Tau per μg of total protein in the cell homogenate. […]; compounds which cause stress or damage to the neurons stimulate the production of P-Tau protein. Lactate dehydrogenase (LDH) activity was measured using a commercial kit; the maximum toxicity was based on % lactic acid dehydrogenases activity in the medium; the control was set at zero.

[3] = test system: Human neuroblastomas SH-SY5Y cell line; test: Lactate dehydrogenase (LDH) activity / toxicity in neurons; assay type: cell-based
Procedure: as §1

[4] = test system: phosphorylated Tau protein; test: Phospho-Tau bioassay (INNOTEST PHOSPHO-TAU(181P) ELISA) in human immortalized neurons; assay type: cell-based; conditions: compound 100 nM; for P-Tau: 24 hours, SH-SY5Y cell homogenate; for Ratio P/T: P-Tau/T-Tau

Structure (SMILES): Cc1ccc(-c2sc3ncnc(NCP(=O)(O)O)c3c2N)cc1 [Example 21-1, (((5-amino-6-(p-tolyl)thieno[2,3-d]pyrimidin-4-yl)amino)methyl)phosphonic acid]
- pIC50 [1]: 5.57

Structure (SMILES): Cc1ccc(-c2cc3c(NC(c4ccccc4)P(=O)(O)O)ncnc3s2)cc1 (stereo not drawn) [Example 36-1, (phenyl((6-(p-tolyl)thieno[2,3-d]pyrimidin-4-yl)amino)methyl)phosphonic acid]
- pIC50 [1]: 5.38

Structure (SMILES): O=P(O)(O)C(Nc1ncnc2sc(-c3ccc(OC4CC4)cc3)cc12)P(=O)(O)O [Example 11-1, (((6-(4-cyclopropoxyphenyl)thieno[2,3-d]pyrimidin-4-yl)amino)methylene)diphosphonic acid]
- T-Tau [2]: 31 pg/µg protein
- LDH ([3]; human, 24 h, 100 nM): 0%
- P-Tau [4]: 0.30 pg of P-Tau per μg of total protein
- Ratio P/T [4]: 0.007

Structure (SMILES): Cc1ccc(-c2cc3c(NCP(=O)(O)O)ncnc3s2)cc1 [Example 18-1, (((6-(p-tolyl)thieno[2,3-d]pyrimidin-4-yl)amino)methyl)phosphonic acid]
- IC50 [1]: 4.5 µM

Structure (SMILES): O=C(O)Cn1c(C(=O)O)cc2ccc3ccccc3c21 [Inhibitor 1]
- T-Tau [2]: 65 pg/µg protein
- LDH ([3]; human, 24 h, 100 nM): 3%
- P-Tau [4]: 0.30 pg of P-Tau per μg of total protein

Structure (SMILES): COc1ccc(-c2cc3c(NC(P(=O)(O)O)P(=O)(O)O)ncnc3s2)cc1 [Example 8-1, (((6-(4-methoxyphenyl)thieno[2,3-d]pyrimidin-4-yl)amino)methylene)diphosphonic acid]
- IC50 [1]: 0.015 µM

Structure (SMILES): Cc1ccc(-c2cc3c(NC(c4ccccc4)P(=O)(O)O)ncnc3s2)cc1Cl (stereo not drawn) [Example 37-1, (((6-(3-chloro-4-methylphenyl)thieno[2,3-d]pyrimidin-4-yl)amino)(phenyl)methyl)phosphonic acid]
- pIC50 [1]: 5.89

Structure (SMILES): O=P(O)(O)C(Nc1ncnc2sc(-c3ccc(C4CC4)cc3)cc12)P(=O)(O)O [Example 7-1, (((6-(4-cyclopropylphenyl)thieno[2,3-d]pyrimidin-4-yl)amino)methylene)diphosphonic acid]
- pIC50 [1]: 7.44

Structure (SMILES): O=P(O)(O)CNc1ncnc2sc(-c3ccc(C4CC4)cc3)cc12 [Example 16-1, (((6-(4-cyclopropylphenyl)thieno[2,3-d]pyrimidin-4-yl)amino)methyl)phosphonic acid]
- T-Tau [2]: 47 pg/µg protein
- LDH ([3]; human, 24 h, 100 nM): 7%
- pIC50 [1]: 4.54
- P-Tau [4]: 0.35 pg of P-Tau per μg of total protein
- Ratio P/T [4]: 0.007

Structure (SMILES): O=P(O)(O)C(O)(Cn1ccnc1)P(=O)(O)O [Zoledronic acid]
- T-Tau [2]: 34 pg/µg protein
- toxicity to neurons [3]: highly toxic
- LDH ([3]; human, 24 h, 100 nM): 60%
- P-Tau [4]: 0.19 pg of P-Tau per μg of total protein

Structure (SMILES): Cc1ccc(-c2sc3ncnc(NCP(=O)(O)O)c3c2N)cc1Cl [Example 41-1]
- pIC50 [1]: 5.00

Structure (SMILES): O=P(O)(O)C(Nc1ncnc2sc(-c3ccc(C4CC4(F)F)cc3)cc12)P(=O)(O)O (stereo not drawn) [Example 13-1, (((6-(4-(2,2-difluorocyclopropyl)phenyl)thieno[2,3-d]pyrimidin-4-yl)amino)methylene)diphosphonic acid]
- IC50 [1]: 0.011 µM

Structure (SMILES): O=P(O)(O)C(Nc1ncnc2sc(-c3ccc(C(F)(F)F)cc3)cc12)P(=O)(O)O [Example 6-1, (((6-(4-(trifluoromethyl)phenyl)thieno[2,3-d]pyrimidin-4-yl)amino)methylene)diphosphonic acid]
- IC50 [1]: 0.021 µM

Structure (SMILES): Cc1ccc(-c2cc3c(N[C@H](Cc4ccccc4)C(=O)O)ncnc3s2)cc1 [Example 33-1]
- pIC50 [1]: 4.40

Structure (SMILES): O=P(O)(O)C(O)(Cc1cccnc1)P(=O)(O)O [Risedronic acid]
- T-Tau [2]: 38 pg/µg protein
- Toxicity ([3]; compound 100 nM, based on LDH): high
- LDH ([3]; compound 100 nM, % lactic acid dehydrogenases activity in the medium, control set at zero): 60%
- toxicity to neurons ([3]; human immortalized neurons): highly toxic
- P-Tau [4]: 0.17 pg of P-Tau per μg of total protein

Structure (SMILES): Cc1ccc(-c2cc3c(NC(P(=O)(O)O)P(=O)(O)O)ncnc3s2)cc1 [Example 5-1]
- IC50 [1]: 0.022 µM

Structure (SMILES): O=P(O)(O)C(Nc1ncnc2sc(-c3ccc4ccccc4c3)cc12)P(=O)(O)O [Example 10-1]
- IC50 [1]: 0.063 µM
